The values that follow come from paper PMC10539329, “NLRP6 potentiates PI3K/AKT signalling by promoting autophagic degradation of p85α to drive tumorigenesis” (Nature Communications, 2023).

The test system of test [1] is p85α in LN229 cells. Put plainly: NLRP6-induced p85α degradation with pathway inhibitors, immunoblot, LN229. The test is classed as cell-based, Human. To be noted: LN229 cells transfected with Flag-NLRP6, immunoblot. As to the method:
(§1) For coimmunoprecipitation, cell lysate was collected and incubated with the indicated antibody at 4 °C overnight followed by incubation with Protein A/G beads (Pierce, IL, USA) at 4 °C for 2 h. The unbound proteins were washed away with lysis buffer. The precipitated proteins were separated from the beads. To detect protein expression in frozen tissues or cells, total protein was extracted using RIPA lysis buffer (Beyotime, Shanghai, China) supplemented with protease and phosphatase inhibitors (Beyotime, Shanghai, China). The protein concentration was determined using a BCA protein quantification kit (Beyotime, Shanghai, China) or BCA Protein Assay Kit (BEB, Nanjing, China). The proteins were separated by SDS–PAGE, transferred to polyvinylidene fluoride (PVDF) membranes (Bio–Rad, CA, USA), and incubated with the indicated antibodies. The bands were detected with the ECL Advanced Western blot Detection Kit (Thermo Fisher Scientific, MA, USA) or Super ECL Chemiluminescent Substrate Kit (BEB, Nanjing, China) on a ChemiDoc Touch System (Bio–Rad, CA, USA) or Tanon 4600 (Tanon, Shanghai, China). The band intensities were quantified using Image Lab software (Bio–Rad, CA, USA) or ImageJ software (National Institutes of Health, MD, USA).

Test [2] addresses T1, recombinant NLRP6 (Homo sapiens, UniProt P59044).
T1 construct: DNA encoding full-length NLRP6 was codon optimized; His (N); MBP (N); made in house; host or cells: E. coli (DE3)
T1 sequence (P59044 1-892): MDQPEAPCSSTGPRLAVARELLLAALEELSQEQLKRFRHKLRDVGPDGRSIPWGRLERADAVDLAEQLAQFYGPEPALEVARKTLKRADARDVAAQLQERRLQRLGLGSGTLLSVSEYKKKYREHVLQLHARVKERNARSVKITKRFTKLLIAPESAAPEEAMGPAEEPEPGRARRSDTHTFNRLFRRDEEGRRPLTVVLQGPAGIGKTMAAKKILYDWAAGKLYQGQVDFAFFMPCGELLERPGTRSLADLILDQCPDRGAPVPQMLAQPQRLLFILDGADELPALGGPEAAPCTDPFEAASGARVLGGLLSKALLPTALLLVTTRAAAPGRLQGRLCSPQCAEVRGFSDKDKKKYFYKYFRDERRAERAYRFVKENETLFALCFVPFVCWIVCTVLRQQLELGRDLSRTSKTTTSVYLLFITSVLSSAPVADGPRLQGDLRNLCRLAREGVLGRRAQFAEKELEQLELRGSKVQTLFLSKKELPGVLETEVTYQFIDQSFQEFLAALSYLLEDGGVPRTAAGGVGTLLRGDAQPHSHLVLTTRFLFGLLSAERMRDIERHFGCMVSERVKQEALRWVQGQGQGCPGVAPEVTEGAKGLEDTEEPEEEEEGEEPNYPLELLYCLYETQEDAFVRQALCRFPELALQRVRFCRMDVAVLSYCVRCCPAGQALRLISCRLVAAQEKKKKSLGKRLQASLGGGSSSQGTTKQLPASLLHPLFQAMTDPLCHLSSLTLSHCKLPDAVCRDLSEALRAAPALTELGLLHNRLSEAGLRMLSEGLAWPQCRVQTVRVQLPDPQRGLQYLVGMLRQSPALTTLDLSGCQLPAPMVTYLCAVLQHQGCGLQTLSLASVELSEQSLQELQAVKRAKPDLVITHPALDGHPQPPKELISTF
Put plainly: Biolayer interferometry (BLI) binding of peptides to recombinant NLRP6. The note with it: Octet Red 96, biotin-NLRP6 on streptavidin biosensors, 30 °C, PBS with 0.01% Tween-20, global 1:1 fitting, printed in picture Fig. 6b, representative of three independent experiments. As to the method:
DNA encoding full-length NLRP6 was codon optimized and chemically synthesized by Genewiz (Soochow, China). The DNA sequence was subcloned into NdeI-XhoI sites of a pDB-His-MBP vector (kindly given by Pro. Chenggui Han, China Agricultural University, Beijing, China). Recombinant NLRP6 protein was expressed and purified following previous reports, with slight modifications. Briefly, the protein was expressed in E. coli (DE3) at 16 °C with 0.5 mM IPTG induction overnight. Then, the protein was purified by Ni affinity and gel filtration chromatography. The p85α WT and p85α mutant sequences were chemically synthesized and subcloned into BamHI-XhoI sites of a pGEX-6P-1 plasmid by GenScript (Nanjing, China). The E. coli (DE3) transformed with the plasmids were grown in LB medium at 37 °C. The culture medium was supplemented with 0.5 mM IPTG followed by incubation at 16 °C for 16–18 h. […] The protein extinction coefficient was calculated by ProtParam, and the protein concentration was determined by the ultraviolet spectrophotometry method.
Eleven α-helical peptides were synthesized (Supplementary Data 7). […] The interaction between the peptides and NLRP6 was determined by BLI using an Octet Red 96 instrument (FortéBio, CA, USA). […] Responses (nanometre shift) were calculated using data that were double reference subtracted using reference wells and nonspecific binding of the biosensor to the analyte. […]
Background: In BLI a coated tip is dipped into the sample, and binding shifts an interference pattern.

Test [3] has as its system PI3K/AKT pathway. Put plainly: Immunoblot of PI3K/AKT pathway with Pep9 and SC-79. The test is classed as cell-based. The method, then: as §1
(In general: Immunoblotting shows a protein as a band on a membrane.)

The test system of test [4] is AKT. To be noted: cited from earlier work. The method, then:
To investigate whether NLRs could regulate PI3K/AKT pathway, the FOXO luciferase reporter assay was performed to detect the transcriptional activity of FOXO, which is one of the best characterized targets of PI3K/AKT pathway. Two independent oligonucleotides targeting each of 22 human NLRs were mixed and transfected into LN229 cells. The nontargeting oligonucleotides served as a negative control. The knockdown efficiency targeting each NLR was confirmed by qRT-PCR (Supplementary Fig. 1a). […] Thus, interrupting the interaction between NLRP6 and p85α appears to be an attractive strategy to inhibit tumour growth. α-Helices are the fundamental recognition elements in protein-protein interactions and may serve as ideal inhibitors of macromolecular interactions. According to the observations that the SR domain (amino acids 1–301) on p85α interacted with the NOD domain (amino acids 1 ...

Test [5] deals with PI3K/AKT pathway. Put plainly: PI3K/AKT activation by NLRP6 overexpression with MK-2206. The test is classed as cell-based. As to the method:
as §1

Test [6] deals with purified NLRP6. Put plainly: ELISA, binding of HRP-conjugated peptide to purified NLRP6. The note with it: ELISA, 1 h. As to the method: DNA encoding full-length NLRP6 was codon optimized and chemically synthesized by Genewiz (Soochow, China). The DNA sequence was subcloned into NdeI-XhoI sites of a pDB-His-MBP vector (kindly given by Pro. Chenggui Han, China Agricultural University, Beijing, China). Recombinant NLRP6 protein was expressed and purified following previous reports, with slight modifications. Briefly, the protein was expressed in E. coli (DE3) at 16 °C with 0.5 mM IPTG induction overnight. Then, the protein was purified by Ni affinity and gel filtration chromatography. The p85α WT and p85α mutant sequences were chemically synthesized and subcloned into BamHI-XhoI sites of a pGEX-6P-1 plasmid by GenScript (Nanjing, China). The E. coli (DE3) transformed with the plasmids were grown in LB medium at 37 °C. The culture medium was supplemented with 0.5 mM IPTG followed by incubation at 16 °C for 16–18 h. The proteins were purified by glutathione-affinity chromatography (Smart-Life Sciences, Changzhou, China) followed by gel filtration chromatography (Cytiva, MA, USA) using PBS. The protein extinction coefficient was calculated by ProtParam, and the protein concentration was determined by the ultraviolet spectrophotometry method.
The 96-well plate was coated with bovine serum albumin (BSA) or purified NLRP6. HRP-conjugated PepC or HRP-conjugated Pep9 was incubated with BSA or NLRP6 for 1 h, and the unbound peptide was washed away. The HRP substrate was added, and the absorbance was detected at 450 nm. For the competitive ELISA, the 96-well plate was coated with purified p85α. The binding of NLRP6 to p85α competed with 10 μM PepC or 5 μM, 10 μM, 20 μM Pep9 for 1 h.
(ELISA stands for enzyme-linked immunosorbent assay.)

Peptide text beside a SMILES is read from it.

`Cn1cnc(N)c2ncnc1-2` [3-methyladenine (3-MA), 3-methyladenine]: the “NLRP6-induced p85α degradation (in words)” value in test [1] is “attenuated NLRP6-induced p85α degradation”.
Still for that read-out and setting: the entry for `Cl.N` [NH4Cl] is “attenuated NLRP6-induced p85α degradation”.
Usually Kd stands for the free concentration of one partner at which half of the binding sites on the other are occupied at equilibrium, for simple one-to-one binding. Take `CC(C)C[C@H](NC(=O)[C@H](CC(N)=O)NC(=O)[C@H](CCCCN)NC(=O)[C@H](CO)NC(=O)[C@H](CO)NC(=O)[C@@H](NC(=O)[C@H](CCC(N)=O)NC(=O)[C@H](CO)NC(=O)[C@H](CC(C)C)NC(=O)[C@H](CCCCN)NC(=O)[C@H](Cc1ccccc1)NC(=O)[C@H](Cc1ccccc1)NC(=O)[C@H](Cc1c[nH]cn1)NC(=O)[C@H](CCCCN)NC(=O)[C@H](CC(C)C)NC(=O)[C@H](CC(C)C)NC(=O)[C@H](Cc1ccc(O)cc1)NC(=O)[C@H](CCC(N)=O)NC(=O)[C@H](CC(C)C)NC(=O)[C@@H](NC(=O)[C@H](CC(C)C)NC(=O)[C@H](Cc1c[nH]c2ccccc12)NC(=O)[C@H](Cc1ccc(O)cc1)NC(=O)[C@H](CCC(N)=O)NC(=O)[C@H](Cc1c[nH]cn1)NC(=O)[C@@H]1CCCN1)[C@@H](C)O)[C@@H](C)O)C(=O)O` [Pep9] (H-PHQYWLTLQYLLKHFFKLSQTSSKNL-OH): the Kd in test [2] came to 9 µM.
Regarding `CO/C1=C\C(C)=C\[C@@H](C)[C@@H](O)[C@@H](C)C/C(C)=C/C=C/[C@H](OC)[C@@H]([C@@H](C)[C@@H](O)[C@H](C)[C@@]2(O)C[C@@H](O)[C@H](C)[C@@H](C(C)C)O2)OC1=O` [bafilomycin A1 (BafA1), bafilomycin A1], in test [1], the “NLRP6-induced p85α degradation (in words)” value is recorded as “attenuated NLRP6-induced p85α degradation”.
The same measure, in the same setting: next, `CCN(CC)CCCC(C)Nc1ccnc2cc(Cl)ccc12` (stereo not shown) [chloroquine (CQ), chloroquine]: “attenuated NLRP6-induced p85α degradation”.
With `CCOC(=O)C1=C(N)Oc2ccc(Cl)cc2C1C(C#N)C(=O)OCC` (stereo not shown) [SC-79], the “effect of SC-79 on Pep9 inhibition of PI3K/AKT pathway (in words)” value in test [3] is given as “The inhibition of Pep9 on PI3K/AKT pathway was reversed when SC79 was added”. Also, the “AKT binding and activation (in words)” value in test [4] (cytosol) is “specifically binds to the PH domain of AKT and activates AKT in the cytosol”.
Regarding `NC1(c2ccc(-c3nc4ccn5c(=O)[nH]nc5c4cc3-c3ccccc3)cc2)CCC1` [MK-2206], the “PI3K/AKT activation by NLRP6 overexpression (in words)” value in test [5] is “NLRP6 overexpression could not activate PI3K/AKT pathway anymore when MK-2206 was introduced”. In addition, the “AKT inhibition (in words)” value in test [4] is “highly potent and selective allosteric AKT inhibitor”.

B1: HRP-conjugated Pep9: Horseradish peroxidase (HRP)-conjugated Pep9 (conjugate)
peptide: EADVEQQALTLPDLAEQFAPPDIAPPLLIKLVEAIEKKGLECSTLYRTQSSSNLAELRQLLDCDTPSVDLEMIDVHVLADAFKRYLLDLPNPVIPAAVYSEMISLAPEVQSSEEYIQLLKKLIRSPSIPHQYWLTLQYLLKHFFKLSQTSSKNLLNARVLSEIFSPMLFRFSAASSDNTENLIKVIEILISTEWNERQPAPALPPKPPKPTTVAN
modifications: left off: HRP, end not stated, kept
As for B1, the “binding of HRP-conjugated peptide to NLRP6 (in words)” value in test [6] is listed as “could bind to NLRP6”.
